Results: PubChem BioAssay AID977614 (Broad Institute, 2014)
Calls of active or inactive are those of the source.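 The calls were made as follows: active = parasite count per well reduced by over 3 SD from the mean, with host cell number above 80% of untreated; inactive = the rest.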

Test system: L. donovani amastigotes in THP-1 macrophages, DAPI imaging, 72 h
Assay: antileishmanial activity in infected macrophages – imaging, THP-1 host macrophages, single concentration (AID 977614);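 also: signal is the parasite per host cell ratio from DAPI stained kinetoplasts and nuclei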

Row | SMILES | AC50
1 | C[C@@H]1CN([C@H](C)CO)C(=O)CCCn2cc(nn2)CO[C@@H]1CN(C)C(=O)CCC(F)(F)F | > 10 µM (inactive)
2 | O=C(c1ccncc1)N1C[C@H]2[C@@H](c3ccccc31)[C@@H](CO)N2C(=O)CN1CCOCC1 | > 10 µM (inactive)
3 | O=C(CN1CCOCC1)NC[C@@H]1N[C@@H](CO)[C@@H]1c1ccc(-c2ccccc2)cc1 | > 10 µM (inactive)
4 | COc1ccccc1-c1ccc([C@H]2[C@@H](CO)N(C(C)=O)[C@H]2CN(C)C(C)=O)cc1 | > 10 µM (inactive)
5 | CC(=O)N1[C@H](CO)[C@H](c2ccc(C3=CCCCC3)cc2)[C@@H]1CNC(=O)CN(C)C | > 10 µM (inactive)
6 | C/C=C/c1ccc([C@H]2[C@@H](CO)N(C(=O)C3CC3)[C@H]2CNC(=O)NC(C)C)cc1 | > 10 µM (inactive)
7 | CCN(C[C@H]1[C@H](c2ccccc2)[C@H](CO)N1C(=O)COC)S(C)(=O)=O | > 10 µM (inactive)
8 | O=C(c1ccc2c(c1)OCO2)N1C[C@H]2[C@@H](c3ccccc31)[C@H](CO)N2Cc1cccnc1 | > 10 µM (inactive)
9 | CCCNC(=O)N1[C@H](CO)[C@H](c2ccc(-c3ccc(C#N)cc3)cc2)[C@@H]1CNC | > 10 µM (inactive)
10 | OC[C@@H]1[C@H](c2ccc(-c3ccc(F)cc3)cc2)[C@H](CNC2CCCC2)N1CCC(F)(F)F | > 10 µM (inactive)
11 | CC(=O)N1[C@H](CN(CC2CCC2)C(=O)CN(C)C)[C@@H](c2ccccc2)[C@@H]1CO | > 10 µM (inactive)
12 | COCC(=O)N1[C@@H](CO)[C@@H]2c3ccccc3N(C)C[C@@H]21 | > 10 µM (inactive)
13 | COc1ccccc1NC(=O)N1C[C@H]2[C@@H](c3ccccc31)[C@@H](CO)N2C(=O)C1CCCC1 | > 10 µM (inactive)
14 | COc1ccccc1CN1[C@H](CO)[C@@H]2c3ccccc3N(C(=O)c3cccnc3)C[C@@H]21 | > 10 µM (inactive)
15 | O=C(Nc1ccc(F)cc1)N1[C@@H](CO)[C@@H]2c3ccccc3NC[C@@H]21 | > 10 µM (inactive)
16 | CCCN1[C@H](CO)[C@H](c2ccc(C#Cc3ccccc3)cc2)[C@@H]1CNC1CCCC1 | > 10 µM (inactive)
17 | C/C=C/c1ccc([C@H]2[C@@H](CO)N(C(C)=O)[C@H]2CN(C(C)=O)C2CCCC2)cc1 | > 10 µM (inactive)
18 | CCN(C[C@@H]1[C@@H](c2ccccc2)[C@H](CO)N1S(C)(=O)=O)C(=O)C1CCCC1 | > 10 µM (inactive)
19 | COCC(=O)N1[C@@H]2CN(C)c3ccccc3[C@@H]2[C@@H]1CO | > 10 µM (inactive)
20 | CC(=O)N1[C@@H](CO)[C@@H](c2ccccc2)[C@@H]1CN(C)S(=O)(=O)c1ccccc1 | > 10 µM (inactive)
21 | CCNC[C@@H]1[C@@H](c2ccccc2)[C@@H](CO)N1C(=O)Cc1ccccn1 | > 10 µM (inactive)
22 | C[C@@H]1CN([C@H](C)CO)C(=O)CCCn2nncc2CO[C@H]1CN(C)S(=O)(=O)c1ccccc1C#N | > 10 µM (inactive)
23 | O=C(Nc1ccc(F)cc1)N1C[C@H]2[C@@H](c3ccccc31)[C@H](CO)N2Cc1ccccc1Cl | > 10 µM (inactive)
24 | C[C@H]1CN([C@@H](C)CO)C(=O)CCCn2cc(nn2)CO[C@@H]1CN(C)C(=O)Nc1cccc2ccccc12 | > 10 µM (inactive)
25 | C[C@H](CO)N1C[C@H](C)[C@@H](CN(C)C(=O)c2ccc(N3CCN(C)CC3)cc2)OCc2cn(nn2)CCCC1=O | > 10 µM (inactive)
26 | O=C(NC[C@H]1N[C@H](CO)[C@H]1c1ccc(-c2ccccc2F)cc1)c1ccccn1 | > 10 µM (inactive)
27 | CC(=O)N1[C@H](CNC(=O)C2CC2)[C@@H](c2ccc(-c3ccccc3)cc2)[C@@H]1CO | > 10 µM (inactive)
28 | COCCN(C[C@@H]1[C@@H](c2ccccc2)[C@H](CO)N1C(C)=O)C(=O)c1cccnc1 | > 10 µM (inactive)

Row | SMILES | AC50
29 | CCN(C[C@@H]1[C@@H](c2ccccc2)[C@@H](CO)N1C(=O)COC)S(C)(=O)=O | > 10 µM (inactive)
30 | C[C@H]1CN([C@@H](C)CO)C(=O)CCCn2nncc2CO[C@@H]1CN(C)C(=O)Nc1ccccc1C(F)(F)F | > 10 µM (inactive)
31 | O=C(Nc1ccccc1F)N1C[C@H]2[C@@H](c3ccccc31)[C@H](CO)N2C(=O)Cc1cccnc1 | > 10 µM (inactive)
32 | O=C(Nc1cccc(F)c1)N1C[C@@H]2[C@H](c3ccccc31)[C@@H](CO)N2C(=O)Cc1ccccn1 | > 10 µM (inactive)
33 | C[C@@H]1CN([C@@H](C)CO)C(=O)CCCn2nncc2CO[C@@H]1CN(C)C(=O)Nc1ccccc1C(F)(F)F | > 10 µM (inactive)
34 | O=S(=O)(c1ccc(F)cc1)N1C[C@H]2[C@@H](c3ccccc31)[C@H](CO)N2Cc1ccccc1Cl | > 10 µM (inactive)
35 | C/C=C/c1ccc([C@H]2[C@H](CO)N(S(C)(=O)=O)[C@H]2CNCC2CCC2)cc1 | > 10 µM (inactive)
36 | CCCC#Cc1ccc([C@H]2[C@@H](CO)N[C@@H]2CN(C(C)=O)C2CCCC2)cc1 | > 10 µM (inactive)
37 | C[C@H]1CN([C@@H](C)CO)C(=O)CCCn2cc(nn2)CO[C@H]1CN(C)C(=O)c1ccc(N2CCN(C)CC2)cc1 | > 10 µM (inactive)
38 | CN1C[C@@H]2[C@H](c3ccccc31)[C@@H](CO)N2S(=O)(=O)c1ccccc1 | > 10 µM (inactive)
39 | CC(=O)N1[C@H](CO)[C@H]2c3ccccc3N(S(=O)(=O)c3ccccc3C)C[C@H]21 | > 10 µM (inactive)
40 | C[C@@H]1CN([C@H](C)CO)C(=O)CCCn2nncc2CO[C@@H]1CN(C)S(=O)(=O)c1ccc2c(c1)OCCCO2 | > 10 µM (inactive)
41 | OC[C@@H]1[C@H](c2ccc(-c3ccc(F)cc3)cc2)[C@@H](CNC2CCCC2)N1CCC(F)(F)F | > 10 µM (inactive)
42 | CCC(=O)NC[C@@H]1[C@@H](c2ccc(-c3ccc(F)cc3)cc2)[C@@H](CO)N1C(=O)CC | > 10 µM (inactive)
43 | C/C=C/c1ccc([C@@H]2[C@@H](CN(CC)C(C)=O)N(Cc3cccnc3)[C@H]2CO)cc1 | > 10 µM (inactive)
44 | COc1ccccc1CN1[C@@H]2CN(C(=O)C3CCOCC3)c3ccccc3[C@@H]2[C@@H]1CO | > 10 µM (inactive)
45 | CN1C[C@@H]2[C@H](c3ccccc31)[C@H](CO)N2C(=O)c1cccnc1 | > 10 µM (inactive)
46 | C[C@H](CO)N1C[C@H](C)[C@H](CN(C)C(=O)NC2CCCC2)OCc2cnnn2CCCC1=O | > 10 µM (inactive)
47 | COc1ccccc1CN1[C@@H](CO)[C@@H]2c3ccccc3N(C(=O)C3CCOCC3)C[C@@H]21 | > 10 µM (inactive)
48 | O=C(CC(F)(F)F)N1C[C@@H]2[C@H](c3ccccc31)[C@H](CO)N2CC1CCOCC1 | > 10 µM (inactive)
49 | CNC[C@@H]1OCc2cnnn2CCCC(=O)N([C@@H](C)CO)C[C@H]1C | > 10 µM (inactive)
50 | C[C@H](CO)N1C[C@H](C)[C@@H](CN(C)C(=O)c2cc(-c3ccccc3)on2)OCc2cnnn2CCCC1=O | > 10 µM (inactive)
51 | O=S(=O)(c1ccccc1)N1[C@H](CO)[C@@H]2c3ccccc3NC[C@@H]21 | > 10 µM (inactive)
52 | COCCN(C[C@H]1N[C@H](CO)[C@@H]1c1ccccc1)C(=O)NC1CCCC1 | > 10 µM (inactive)
53 | Cc1noc(C)c1NC(=O)N(C)C[C@@H]1OCc2cnnn2CCCC(=O)N([C@H](C)CO)C[C@@H]1C | > 10 µM (inactive)
54 | C[C@@H]1CN([C@H](C)CO)C(=O)CCCn2nncc2CO[C@H]1CN(C)C(=O)CCC(F)(F)F | > 10 µM (inactive)
55 | OC[C@@H]1[C@H]2c3ccccc3NC[C@H]2N1Cc1ccccc1Cl | > 10 µM (inactive)
